Laboratory results published in patent publication US20240067645A1, “HETEROCYCLIC COMPOUND AS DIACYLGLYCEROL KINASE INHIBITOR AND USE THEREOF” (LG CHEM, LTD., priority 2020, published 2024).

What follows are compounds tested against DGKα (Homo sapiens (Human), UniProt P23743) (assay: Measurement of inhibitory effect against DGKα enzyme (ADP-Glo)). Conditions: DGKα enzyme, ADP-Glo luminescence, OAG/ATP substrate, 20 min room temperature; read-out: IC50.
Assay type: biochemical
Description: Experimental Example: Measurement of Inhibitory Effect Against DGKα Enzyme
First, 3×OAG (3 mM)/ATP (0.45 mM) substrate solution was prepared from 1× substrate assay buffer (40 mM MOPS (pH 7.2), 20 mM MgCl2, 1 mM DTT, 0.4 mM CaCl2), 3 mM sodium deoxycholate, 100 mM NaCl, 0.1 mg/mL BSA, 0.12% NP-40), and vortexed thoroughly for 3 minutes to induce detergent-lipid micelle formation. Then, 3×DGKα (7.5 nM) enzyme solution was prepared from 2× enzyme assay buffer (80 mM MOPS (pH 7.2), 2 mM DTT, 200 mM NaCl, 0.2 mg/mL BSA) and vortexed for a short time.
After preparing the above two solutions, a half-area opaque 96-well assay plate was prepared, and 10 μL of 3× diluted compound solution (30 μM to 0 μM) was transferred to each well. Next, 10 μL of 3×DGK enzyme solution was transferred to the same plate, mixed by pipetting, and then 10 μL of 3×OAG/ATP substrate solution was added to the assay plate and mixed well. The plate was incubated at room temperature for 20 minutes for the enzyme reaction. Next, 15 μL of ADP-Glo reagent was added to each well and mixed by pipetting, followed by incubating the plate at room temperature for 40 minutes to deplete the remaining ATPs. After this step, 30 μL of kinase detection reagent was added and mixed, and the plate was incubated at room temperature for an additional 20 minutes and luminescence was measured by Envision to calculate the IC50 value of each compound.
The measurement results are represented in Table 1 (+: IC50>5 μM, ++: 5 μM>IC50>300 nM, +++: IC50<300 nM).

DGKα, sequence (P23743 whole entry, species assumed): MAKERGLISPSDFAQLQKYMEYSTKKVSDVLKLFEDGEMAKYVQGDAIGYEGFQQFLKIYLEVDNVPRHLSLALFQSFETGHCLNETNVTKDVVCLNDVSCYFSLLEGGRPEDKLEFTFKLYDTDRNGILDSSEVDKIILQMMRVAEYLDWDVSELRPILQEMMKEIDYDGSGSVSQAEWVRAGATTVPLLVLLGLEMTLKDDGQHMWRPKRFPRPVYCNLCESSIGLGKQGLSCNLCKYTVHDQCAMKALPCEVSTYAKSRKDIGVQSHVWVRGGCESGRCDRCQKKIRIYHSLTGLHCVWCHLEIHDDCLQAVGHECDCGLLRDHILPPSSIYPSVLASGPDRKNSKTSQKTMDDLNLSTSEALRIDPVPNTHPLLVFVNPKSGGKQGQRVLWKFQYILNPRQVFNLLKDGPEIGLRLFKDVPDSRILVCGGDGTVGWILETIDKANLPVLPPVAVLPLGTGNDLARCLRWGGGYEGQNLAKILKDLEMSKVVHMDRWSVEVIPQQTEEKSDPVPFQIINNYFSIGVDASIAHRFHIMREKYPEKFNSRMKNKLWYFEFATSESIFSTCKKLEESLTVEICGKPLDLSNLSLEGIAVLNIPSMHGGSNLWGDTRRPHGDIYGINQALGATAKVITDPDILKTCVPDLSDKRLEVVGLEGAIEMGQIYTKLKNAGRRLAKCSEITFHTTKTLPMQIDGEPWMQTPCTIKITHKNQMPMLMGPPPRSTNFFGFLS

Row | Compound | IC50 [nM]
1 | Cn1c(=O)c(=O)n(C2CCN(Cc3ccc4c(c3)OCCO4)CC2)c2ncc(Cl)cc21 [Example 46, 7-chloro-4-(1-((2,3-dihydrobenzo[b][1,4]dioxin-6-yl)methyl)piperidin-4-yl)-1-methyl-1,4-dihydropyrido[2,3-b]pyrazine-2,3-dione] | 300 to 5000
2 | Cc1ccc2c(n1)n(C1CCN(C(C)c3ccc4nccnc4c3)CC1)c(=O)c(=O)n2C (stereo not drawn) [Example 24, 1,6-dimethyl-4-(1-(1-(quinoxalin-6-yl)ethyl)piperidin-4-yl)-1,4-dihydropyrido[2,3-b]pyrazine-2,3-dione] | > 5000
3 | CC(=O)c1ccc2c(n1)n(C1CCN(Cc3ccc(OC(F)(F)F)cc3)CC1)c(=O)c(=O)n2C [Example 53, 6-acetyl-1-methyl-4-(1-(4-(trifluoromethoxy)benzyl)piperidin-4-yl)-1,4-dihydropyrido[2,3-b]pyrazine-2,3-dione] | 300 to 5000
4 | Cn1c(=O)c(=O)n(C2CCN(Cc3ccc(OC(F)(F)F)cc3)CC2)c2ncccc21 [Example 1, methyl-4-(1-(4-(trifluoromethoxy)benzyl)piperidin-4-yl)-1,4-dihydropyrido[2,3-b]pyrazine-2,3-dione] | < 300
5 | C[C@@H]1CC(n2c(=O)c(=O)n(C)c3cc(Cl)cnc32)[C@@H](C)CN1Cc1ccc(OC(F)(F)F)cc1 (stereo partly drawn) [Example 49] | 300 to 5000
6 | Cn1c(=O)c(=O)n(C2CCN(Cc3ccc(OC(F)(F)F)cc3)CC2)c2nc(C#N)ccc21 [Example 11, 1-methyl-2,3-dioxo-4-(1-(4-(trifluoromethoxy)benzyl)piperidin-4-yl)-1,2,3,4-tetrahydropyrido[2,3-b]pyrazine-6-carbonitrile] | 300 to 5000
7 | Cc1ccnc2c1n(C)c(=O)c(=O)n2C1CCN(Cc2ccc(OC(F)(F)F)cc2)CC1 [Example 56, 1,8-dimethyl-4-(1-(4-(trifluoromethoxy)benzyl)piperidin-4-yl)-1,4-dihydropyrido[2,3-b]pyrazine-2,3-dione] | > 5000
8 | Cn1c(=O)c(=O)n(C2CCN(Cc3ccc(OC(F)(F)F)cc3)CC2)c2nc(C#N)c(C3CC3)cc21 [Example 44, 7-cyclopropyl-1-methyl-2,3-dioxo-4-(1-(4-(trifluoromethoxy)benzyl)piperidin-4-yl)-1,2,3,4-tetrahydropyrido[2,3-b]pyrazine-6-carbonitrile] | 300 to 5000
9 | Cn1c(=O)c(=O)n(C2CCN(Cc3ccc(OC(F)(F)F)cc3)CC2(C)C)c2ncc(Cl)cc21 (stereo not drawn) [Example 31, 7-chloro-4-(3,3-dimethyl-1-(4-(trifluoromethoxy)benzyl)piperidin-4-yl)-1-methyl-1,4-dihydropyrido[2,3-b]pyrazine-2,3-dione] | 300 to 5000
10 | Cc1nc2c(cc1Cl)n(C)c(=O)c(=O)n2C1CCN(Cc2ccc(OC(F)(F)F)cc2)CC1 [Example 50, 7-chloro-1,6-dimethyl-4-(1-(4-(trifluoromethoxy)benzyl)piperidin-4-yl)-1,4-dihydropyrido[2,3-b]pyrazine-2,3-dione] | < 300
11 | CN(C)C(=O)c1cnc2c(c1)n(C)c(=O)c(=O)n2C1CCN(Cc2ccc(OC(F)(F)F)cc2)CC1 [Example 64, N,N,1-trimethyl-2,3-dioxo-4-(1-(4-(trifluoromethoxy)benzyl)piperidin-4-yl)-1,2,3,4-tetrahydropyrido[2,3-b]pyrazine-7-carboxamide] | > 5000
12 | Cc1cnc2c(c1)n(C)c(=O)c(=O)n2C1CCN(Cc2ccc(OC(F)(F)F)cc2)CC1 [Example 61, 1,7-dimethyl-4-(1-(4-(trifluoromethoxy)benzyl)piperidin-4-yl)-1,4-dihydropyrido[2,3-b]pyrazine-2,3-dione] | < 300
13 | Cn1c(=O)c(=O)n(C2CCN(Cc3ccc(OC(F)(F)F)cc3)CC2)c2ncc(C#N)cc21 [Example 47, 1-methyl-2,3-dioxo-4-(1-(4-(trifluoromethoxy)benzyl)piperidin-4-yl)-1,2,3,4-tetrahydropyrido[2,3-b]pyrazine-7-carbonitrile] | 300 to 5000
14 | Cn1c(=O)c(=O)n(C2CCN(Cc3ccc(OC(F)(F)F)cc3)CC2)c2ncc(C(=O)O)cc21 [Example 62, 1-methyl-2,3-dioxo-4-(1-(4-(trifluoromethoxy)benzyl)piperidin-4-yl)-1,2,3,4-tetrahydropyrido[2,3-b]pyrazine-7-carboxylic acid] | 300 to 5000
15 | Cc1nc2c(cc1Br)n(C)c(=O)c(=O)n2C1CCN(Cc2ccc(OC(F)(F)F)cc2)CC1 [Example 51, 7-bromo-1,6-dimethyl-4-(1-(4-(trifluoromethoxy)benzyl)piperidin-4-yl)-1,4-dihydropyrido[2,3-b]pyrazine-2,3-dione] | < 300
16 | CN(C)CCNC(=O)c1cnc2c(c1)n(C)c(=O)c(=O)n2C1CCN(Cc2ccc(OC(F)(F)F)cc2)CC1 [Example 63, N-(2-(dimethylamino)ethyl)-1-methyl-2,3-dioxo-4-(1-(4-(trifluoromethoxy)benzyl)piperidin-4-yl)-1,2,3,4-tetrahydropyrido[2,3-b]pyrazine-7-carboxamide] | > 5000

The next lines start with the values.

Row | IC50 [nM] | Compound
17 | 300 to 5000 | COc1ccc2c(n1)n(C1CCN(Cc3ccc(OC(F)(F)F)cc3)CC1)c(=O)c(=O)n2C [Example 55, 6-methoxy-1-methyl-4-(1-(4-(trifluoromethoxy)benzyl)piperidin-4-yl)-1,4-dihydropyrido[2,3-b]pyrazine-2,3-dione]
18 | > 5000 | Cc1ccc2c(n1)n(C1CCN(Cc3cccc(F)n3)CC1)c(=O)c(=O)n2C [Example 16, 4-(1-((6-fluoropyridin-2-yl)methyl)piperidin-4-yl)-1,6-dimethyl-1,4-dihydropyrido[2,3-b]pyrazine-2,3-dione]
19 | 300 to 5000 | Cc1ccc2c(n1)n(C1CCN(Cc3ccnc4ccccc34)CC1)c(=O)c(=O)n2C [Example 9, 1,6-dimethyl-4-(1-(quinolin-4-ylmethyl)piperidin-4-yl)-1,4-dihydropyrido[2,3-b]pyrazine-2,3-dione]
20 | < 300 | Cc1ccc2c(n1)n(C1CCN(Cc3cccc4ccccc34)CC1)c(=O)c(=O)n2C [Example 5, 1,6-dimethyl-4-(1-(naphthalen-1-ylmethyl)piperidin-4-yl)-1,4-dihydropyrido[2,3-b]pyrazine-2,3-dione]
21 | < 300 | Cn1c(=O)c(=O)n(C2CCN(Cc3ccc(OC(F)(F)F)cc3)CC2)c2nc(-c3ccccc3F)c(Cl)cc21 [Example 41, 7-chloro-6-(2-fluorophenyl)-1-methyl-4-(1-(4-(trifluoromethoxy)benzyl)piperidin-4-yl)-1,4-dihydropyrido[2,3-b]pyrazine-2,3-dione]
22 | > 5000 | COc1ncccc1CN1CCC(n2c(=O)c(=O)n(C)c3ccc(C)nc32)CC1 [Example 15, 4-(1-((2-methoxypyridin-3-yl)methyl)piperidin-4-yl)-1,6-dimethyl-1,4-dihydropyrido[2,3-b]pyrazine-2,3-dione]
23 | 300 to 5000 | Cc1ccc2c(n1)n(C1CCN(Cc3ccc4c(ccn4C)c3)CC1)c(=O)c(=O)n2C [Example 8, 1,6-dimethyl-4-(1-((1-methyl-1H-indol-5-yl)methyl)piperidin-4-yl)-1,4-dihydropyrido[2,3-b]pyrazine-2,3-dione]
24 | 300 to 5000 | Cc1ccc2c(n1)n(C1CCN(Cc3ccccc3)CC1)c(=O)c(=O)n2C [Example 23, 4-(1-benzylpiperidin-4-yl)-1,6-dimethyl-1,4-dihydropyrido[2,3-b]pyrazine-2,3-dione]
25 | 300 to 5000 | Cn1c(=O)c(=O)n(C2CCN(Cc3cccc(Cl)c3)CC2)c2nc(C#N)ccc21 [Example 25, 4-(1-(3-chlorobenzyl)piperidin-4-yl)-1-methyl-2,3-dioxo-1,2,3,4-tetrahydropyrido[2,3-b]pyrazine-6-carbonitrile]
26 | 300 to 5000 | Cc1ccc2c(n1)n(C1CCN(Cc3ccccc3-c3ccccc3)CC1)c(=O)c(=O)n2C [Example 10, 4-(1-([1,1′-biphenyl]-2-ylmethyl)piperidin-4-yl)-1,6-dimethyl-1,4-dihydropyrido[2,3-b]pyrazine-2,3-dione]
27 | 300 to 5000 | Cc1ccc2c(n1)n(C1CCN(Cc3ccccc3Cl)CC1)c(=O)c(=O)n2C [Example 12, 4-(1-(2-chlorobenzyl)piperidin-4-yl)-1,6-dimethyl-1,4-dihydropyrido[2,3-b]pyrazine-2,3-dione]
28 | < 300 | Cc1ccc2c(n1)n(C1CCN(Cc3ccc(Oc4ccccc4)cc3)CC1)c(=O)c(=O)n2C [Example 18, 1,6-dimethyl-4-(1-(4-phenoxybenzyl)piperidin-4-yl)-1,4-dihydropyrido[2,3-b]pyrazine-2,3-dione]
29 | 300 to 5000 | Cc1ccc2c(n1)n(C1CCN(Cc3cc4ccccc4nc3Cl)CC1)c(=O)c(=O)n2C [Example 6, 4-(1-((2-chloroquinolin-3-yl)methyl)piperidin-4-yl)-1,6-dimethyl-1,4-dihydropyrido[2,3-b]pyrazine-2,3-dione]
30 | < 300 | Cn1c(=O)c(=O)n(C2CCN(Cc3cccc(Cl)c3)CC2)c2ncccc21 [Example 22, 4-(1-(3-chlorobenzyl)piperidin-4-yl)-1-methyl-1,4-dihydropyrido[2,3-b]pyrazine-2,3-dione]
